Consider two substances from patent US8945584B2, “Cell culture system of a hepatitis C genotype 3a and 2a chimera” (Hvidovre Hospital, priority 2007, dated 2015).

Data set [1] has as its system Huh7.5 cells. Description: Real-time PCR (TaqMan) assay for HCV RNA titers in cell culture supernatants. In kind it is cell-based, human. The following applies: kinetic experiment, inoculated with ~10^4 TCID50, day 6 and 9. Here is the method:
RNA was purified from 200 μl of heat inactivated (56° C. for 30 min) cell culture supernatant and eluted in a final volume of 50 μl using the Total Nucleic Acid Isolation Kit (Roche) in combination with the Total NA Variable Elution Volume protocol on a MagNA Pure LC Instrument (Roche). As an internal control, Phocine Distemper Virus (PDV) was added to the lysis buffer in a concentration titrated to yield a Ct of ˜32 upon real-time PCR analysis. In parallel to RNA purified from cell culture supernatants, a quantitative HCV standard panel covering RNA concentrations of 0 to 5×10^6 IU/ml in one log increments (OptiQuant HCV Panel, AcroMetrix) was analysed. […] For HCV, primers and a FAM-labelled MGB-probe were directed against the 5′ UTR and were previously shown to perform equivalently against a panel of the six major HCV genotypes in a different TaqMan assay (Engle R E, Bukh J, and Purcell R H, 2007) For PDV, a ready-to-use primer/probe mix was used (Dr. H. G. M. Niesters, Department of Virology, Erasmus Medical Centre, Rotterdam, The Netherlands). […] HCV RNA titers (IU/ml) were calculated using a standard curve created from the known concentrations of the standard panel and their corresponding Ct values (cycle number, at which the normalised fluorescence signal rises above a fixed threshold of 0.2 […] to the amount of template in the PCR reaction). […]
A general note: In qPCR the cycle at which signal appears reflects the starting amount.

The test system of data set [2] is Huh7.5 cells. Description: Percentage of infected cells by immuno-staining for HCV NS5A. In kind it is cell-based, human. Here is the method: Analyses were carried out as previously described with modifications. Huh7.5 cells were washed with PBS, trypsinized and plated on chamber slides (Nunc). After ˜24 hours cells were washed twice with PBS and fixed 5 min with ice-cold methanol. After washing 2× with PBS and 1× with PBS/Tween (0.1% Tween-20), slides were blocked with PBS containing bovine serum albumin (BSA, 1%) and skim milk (0.2%) for 1 hour at room temperature. Endogenous peroxidase staining was reduced by adding 3% H202 in PBS for 5 min. After washing as above the 1st antibody (anti-NS5A, 9E10, a generous gift from Charles M. Rice, used at 1:200 in PBS/Tween) was added and incubated at 4° C. overnight. After washing slides were incubated with secondary antibody (ECLTM Anti-mouse IgG, horseradish peroxidase linked whole antibody, Amersham Biosciences, used at 1:300 in PBS/Tween) for 30 min at room temperature. After washing horseradish peroxidase substrate (DAB substrate kit, DAKO) was added. After incubation for 30 min, slides were washed with H2O, mounted with Fluoromount-G (Southern Biotech) and cover slipped. Percentage of infected cells was evaluated by light microscopy assigning values of 0% (no cells infected), 1%, 5%, 10-90% (in steps of 10%), 95% and 100% (all cells infected).

For data set [3], the system named is Huh7.5 cells. As to the kind of experiment: Determination of 50% tissue culture infectious doses (TCID50) of culture supernatants. In kind it is cell-based, human. The conditions noted are these: for infectivity titer (TCID50): day 9 post-transfection, one of 6 replicate wells infected with undiluted supernatant. Here is the method: To determine the efficiency of the developed system, HCV RNA titers are determined in IU/ml (international units/ml) with Taq-Man Real-Time-PCR and infectious titers are determined with a tissue culture infectious dose-50 method. This titer indicates the dilution of the examined viral stock, at which 50% of the replicate cell cultures used in the essay become infected and is given in TCID50/ml.
In general, the TCID50 of culture supernatants was determined as previously described. Huh7.5 cells were washed with PBS, trypsinized and plated at 6×10^3 cells per well of a poly-D-lysine coated 96 well plate (Nunc). After ˜24 hrs cells were incubated with 10-fold serial dilutions of viral stock cell culture supernatant in complete growth medium. For each dilution, six replicate wells were inoculated. After incubation for 48 hrs the plate was subjected to immuno staining for NS5A as described above. Wells were evaluated by light microscopy and scored positive if at least one positive cell could be detected. TCID50 values were calculated as described by Reed and Muench.
For determination of TCID50 Huh7.5 cells were plated at 6×10^3 cells/well on a poly-D-Lysine coated 96 well plate and infected with serial dilutions of virus containing cell culture supernatant in complete growth medium in replicates of 6 wells per dilution. After incubation for 48 hours cells were stained for NS5A expression. A well was counted positive, if at least one infected cell was visible. Calculation of TCID50 was done as previously described by Reed et al. † Average of 3 independent determinations, * average of 2 independent determinations, +1 determination. HCV RNA titers were determined with an TaqMan assay. Supernatants from transfection experiments were not tested in TaqMan due to DNA/RNA input from the transfection procedure. Specific infectivity was calculated as infectious units (TCID50/ml) per genome number (IU/ml).

For a further data set, the system named is S52/JFH1(T2718G; A4550C). As to the kind of experiment: Interferon alfa 2b treatment of infected Huh7.5 cultures, % NS5A positive cells. In kind it is cell-based, hepatitis C virus. Here is the method: (§1) FIG. 10. S52/JFH1 viruses are sensitive to treatment with Interferon alfa. […] Huh7.5 cells were infected with 10^4 TCID50 (MOI 0,003) of the indicated viruses. On day 5 after infection, cultures were evaluated for % of NS5A positive cells (first datapoint) and 4×10^5 cells of the respective culture were plated per well of a 6-well dish. After 24 hrs incubation, treatment with cell culture medium containing 500 IU/mL interferon alfa 2b was started. Interferon containing medium was replaced at the time points indicated by arrows. Cultures were evaluated for the % of NS5A positive cells at the indicated timepoints.
(§2) As proof of principle of using the present invention in testing of anti-hepatitis C virus substances, the effects of interferon alfa, currently used in combination therapy for HCV, were tested on the infected cell culture. […] Thus we treated Huh7.5 cell cultures infected with J6/JFH1, S52/JFH1(T2718G; A4550C) and S52/JFH1(A4550C) with cell culture medium containing 5001 U/mL interferon alfa 2b (FIG. 10). After initiation of treatment, we observed for all cultures a fast decline of HCV antigen positive cells. Thus, for J6/JFH1 and S52/JFH1(T2718G; A4550C) the percentage of NS5A positive cells was 90 and 60 the day prior to treatment, whereas only 20% and 10% NS5A positive cells were detected in the respective cultures on day 3 of treatment ([…]).
(§3) HCV cell culture systems could be important tools for testing of antiviral therapeutics. […] Thus Huh7.5 cell cultures infected with J6/JFH1, S52/JFH1(T2718G; A4550C) and S52/JFH1(A4550C) were treated with cell culture medium containing 5001 U/mL interferon alfa 2b. After initiation of treatment, a fast decline of HCV antigen positive cells was shown for all cultures. Thus, for J6/JFH1 and S52/JFH1(T2718G; A4550C) the percentage of NS5A positive cells was 90 and 60 the day prior to treatment, whereas only 20% and 10% NS5A positive cells were detected in the respective cultures on day 3 of treatment (FIG. 10).

A further data set relates to J6/JFH1. Described as above. In kind it is cell-based, hepatitis C virus. Here is the method: as §1, §2, §3
A further data set relates to S52/JFH1(A4550C). The data set is described as above. The class given is cell-based, hepatitis C virus. The conditions noted are these: 5001 U/mL interferon alfa 2b in medium (FIG. 10 legend: 500 IU/mL). Here is the method: as §1, §2, §3
The mark [4] stands for this setting: 5001 U/mL interferon alfa 2b in medium (FIG. 10 legend: 500 IU/mL).
[5] abbreviates: day 6, cultures not treated for 48 hrs.

On to “S52/JFH1: intergenotypic 3a/2a recombinant HCV: Core-NS2 of strain S52, 5' UTR, NS3-NS5B and 3' UTR of JFH1”, for which the “peak HCV RNA titers” value with Huh7.5 cells [1] is ~10^7 copies/ml. Besides, the “% infected cells” value was determined as 95% in the data set on Huh7.5 cells [2] (First experiment, 2nd viral passage (used for kinetic experiment), day 11); 95% with Huh7.5 cells [2] (First experiment, 3rd viral passage (inoculated with 10^2.5 TCID50), day 12); 90% with Huh7.5 cells [2] (First experiment, 3rd viral passage (inoculated with 10^4 TCID50), day 3); 40% in the data set with Huh7.5 cells [2] (First experiment, transfection, experimental day 11); 95% in the data set on Huh7.5 cells [2] (Second experiment, 1st viral passage, experimental day 8); 70% with Huh7.5 cells [2] (Second experiment, transfection, experimental day 33). For the same substance, the “NS5A antigen positive cells” value in the data set on Huh7.5 cells [2] (day 1 after transfection with RNA transcripts) is roughly 10%. The “time until viruses spread to the entire culture” value with Huh7.5 cells [2] (naive Huh7.5 cells infected with approximately 10^2.5 TCID50) was 12 days; with Huh7.5 cells [2] (naive Huh7.5 cells infected with approximately 10^3 TCID50), 9 days; with Huh7.5 cells [2] (naive Huh7.5 cells infected with approximately 10^4 TCID50) it was 3 days. Further, the “infectivity titer (TCID50)” value is listed as “undeterminable” with Huh7.5 cells [3] and “non-determinable” with Huh7.5 cells [3] (listed as pS52/JFH1). Further, in the data set with Huh7.5 cells [3] (days 3, 7 and 9 post-transfection (FIG. 5B)), the “Peak infectivity titers after transfection” value is reported as “significantly lower titers”.
For interferon alfa 2b, the “HCV antigen positive cells after initiation of treatment” value with S52/JFH1(T2718G; A4550C) (setting [4]), with J6/JFH1 (setting [4]) and in the data set on S52/JFH1(A4550C) was “fast decline” each time. Also, the NS5A positive cells in the data set on S52/JFH1(T2718G; A4550C) (day 3 of treatment, 60 the day prior to treatment) worked out at 10%; with S52/JFH1(T2718G; A4550C) (setting [5]), 40%; in the data set with J6/JFH1 (day 3 of treatment, 90 the day prior to treatment) it was 20%; in the data set with J6/JFH1 (setting [5]) it was 40%.
